Measured values taken from patent US20230416328A1, “C-Type Natriuretic Peptides and Methods Thereof in Treating Acute Lung Injury” (priority 2020, published 2023).
Numbered stars: 1 amine (or outer) side, 2 acyl side, 3 side chain; on linkers, the order of the positions; unused ones are H or OH. Bridge positions count the residues as written; N and C are the ends. Square brackets hold non-standard residues; d marks the D form. Peptide text beside a SMILES is read from it. * marks the point of attachment. C18 diacid = O=C(O)CCCCCCCCCCCCCCCCC(=O)*; γGlu = O=C(O)[C@H](CCC(=O)[*:2])N[*:1]; Aad = N[C@@H](CCCC(=O)O)C(=O)O; AEEA = NCCOCCOCC(=O)O

Key:
LPS-induced sepsis = LPS-induced sepsis lethality in Balb/c mice (survival); type: in vivo; conditions: LPS 10 mg/kg i.p., 1.0 mg/kg s.c.
Procedure: Male Balb/c mice (11 week) were purchased from Kyudo (Saga, Japan) and maintained under a 12-hour light/12-hour dark cycle with free access to water and standard mouse diet (MF diet, Oriental Yeast Co., Ltd. Tokyo, Japan). […] Test articles were administered right after LPS administration. Survival was observed every 2 hours.
Table 1. […] Shown is the % survival by hours. […] Survival was observed every 2 hours (FIGS. 13A and 13B). First mortality observed was in Italicized and bold and the last observation survival % was in bold in the table.

[1] = healthy human volunteers, bolus injection; cited from earlier work
[2] = species not stated; cited from earlier work
[3] = Pharmacokinetic study: plasma CNP (ELISA) after subcutaneous bolus in CD-1 mice
Procedure: All test articles were formulated or dissolved in 100 mM sorbitol, 100 mM methionine, 20 mM histidine, pH 6.0. […] Blood samples were processed in K2EDTA tubes to obtain plasma. Plasma was analyzed by commercially available CNP ELISA kit from Phoenix Pharmaceuticals (cat #EKE-012-03).

[4] = Pharmacokinetic study of dCNP-s1 and dCNP-s2: plasma CNP (ELISA) in CD-1 mice; type: in vivo; conditions: 2.0 mg/Kg s.c. bolus, FIG. 20
Procedure: For this pharmacokinetic study, all animals (mice) for this study were maintained under a 12-hour light/12-hour dark cycle with free access to water and standard mouse diet (Lab Pico Rodent #5053; Animal Specialties, Woodburn, OR). Male CD-1 mice (6-8 weeks old; Charles River, Hollister, CA) were treated with 2.0 mg/Kg of CNP derivative s1 (dCNP-s1; PharmaIN Corp, Bothell, WA), and CNP derivative s2 (dCNP-s2; PharmaIN Corp, Bothell, WA) via subcutaneous administration between the shoulder blades.

[5] = in vivo; cited from earlier work
[6] = hours '0' [sic] (second to last observation)

Molecule: CC[C@H](C)[C@@H]1NC(=O)[C@H](CCCNC(=N)N)NC(=O)[C@H](CC(=O)O)NC(=O)[C@H](CCSC)NC(=O)[C@H](CCCNC(=N)N)NC(=O)CNC(=O)CNC(=O)[C@H](Cc2ccccc2)NC(=O)[C@@H](NC(=O)[C@H](CO)NC(=O)[C@H](CO)NC(=O)[C@H](CCCNC(=N)N)NC(=O)[C@H](CCCNC(=N)N)NC(=O)[C@H](CC(C)C)NC(=O)[C@@H](N)CO)CSSC[C@@H](C(=O)N[C@@H](CC(N)=O)C(=O)N[C@@H](CO)C(=O)N[C@@H](Cc2ccccc2)C(=O)N[C@@H](CCCNC(=N)N)C(=O)N[C@@H](Cc2ccc(O)cc2)C(=O)O)NC(=O)CNC(=O)[C@H](CC(C)C)NC(=O)CNC(=O)[C@H](CO)NC(=O)[C@H](CCC(N)=O)NC(=O)[C@H](C)NC(=O)CNC1=O [ANP, atrial natriuretic peptide]
- Percent animal survival at various time after LPS administration (LPS-induced sepsis; hours 1 (last observation)): 10%
- Percent animal survival at various time after LPS administration (LPS-induced sepsis; hours 3 [sic]): 100%
- Percent animal survival at various time after LPS administration (LPS-induced sepsis; hours 7 [sic]): 60%
- Percent animal survival at various time after LPS administration (LPS-induced sepsis; hours 9 [sic]): 30%
- Percent animal survival at various time after LPS administration (LPS-induced sepsis; hours '0'): 100%
- Percent animal survival at various time after LPS administration (LPS-induced sepsis; [6]): 10%
- Percent animal survival at various time after LPS administration (LPS-induced sepsis; hours '2'): 100%
- Percent animal survival at various time after LPS administration (LPS-induced sepsis; hours '8'): 30%
- Percent animal survival at various time after LPS administration (LPS-induced sepsis; hours printed '6' (r14)): 60%

Molecule: CC[C@H](C)[C@@H]1NC(=O)[C@H](CCCNC(=N)N)NC(=O)[C@H](CC(=O)O)NC(=O)[C@H](CC(C)C)NC(=O)[C@H](CCCCN)NC(=O)[C@H](CC(C)C)NC(=O)CNC(=O)[C@H](Cc2ccccc2)NC(=O)[C@@H](NC(=O)CNC(=O)[C@H](CCCCN)NC(=O)[C@H](CO)NC(=O)[C@H](CC(C)C)NC(=O)CN)CSSC[C@@H](C(=O)O)NC(=O)CNC(=O)[C@H](CC(C)C)NC(=O)CNC(=O)[C@H](CO)NC(=O)[C@H](CCSC)NC(=O)[C@H](CO)NC(=O)CNC1=O [CNP]
- heart rate [1]: significant increase in heart rate
- systolic and diastolic blood pressure [1]: transient but significant decrease
- half-life [2]: 2 to 13 min
- plasma CNP ([3]; CD-1 mice, 2.0 mg/Kg s.c. bolus, FIG. 1A): low plasma level of CNP

Molecule: CCCc1nc(C)c2c(=O)[nH]c(-c3cc(S(=O)(=O)N4CCN(CC)CC4)ccc3OCC)nn12 [VDN, Vardenafil]
- Percent animal survival at various time after LPS administration (LPS-induced sepsis; hours 1 (last observation)): 0%
- Percent animal survival at various time after LPS administration (LPS-induced sepsis; hours 3 [sic]): 100%
- Percent animal survival at various time after LPS administration (LPS-induced sepsis; hours 7 [sic]): 60%
- Percent animal survival at various time after LPS administration (LPS-induced sepsis; hours 9 [sic]): 20%
- Percent animal survival at various time after LPS administration (LPS-induced sepsis; hours '0'): 100%
- Percent animal survival at various time after LPS administration (LPS-induced sepsis; [6]): 0%
- Percent animal survival at various time after LPS administration (LPS-induced sepsis; hours '2'): 100%
- Percent animal survival at various time after LPS administration (LPS-induced sepsis; hours '8'): 20%
- Percent animal survival at various time after LPS administration (LPS-induced sepsis; hours printed '5' (r13)): 100%

Molecule: CC[C@H](C)[C@@H]1NC(=O)[C@H](CCCNC(=N)N)NC(=O)[C@H](CC(=O)O)NC(=O)[C@H](CC(C)C)NC(=O)[C@H](CCCCN)NC(=O)[C@H](CC(C)C)NC(=O)CNC(=O)[C@H](Cc2ccccc2)NC(=O)[C@@H](NC(=O)CNC(=O)COCCOCCNC(=O)COCCOCCNC(=O)CCCCCCCCCCCCCCCCC(=O)O)CSSC[C@@H](C(=O)O)NC(=O)CNC(=O)[C@H](CC(C)C)NC(=O)CNC(=O)[C@H](CO)NC(=O)[C@H](CCCC(N)=O)NC(=O)[C@H](CO)NC(=O)CNC1=O [dCNP-s1] ({C18 diacid-AEEA-AEEA}-GCFGLKLDRIGS[Aad](NH2)SGLGC-OH; disulfide 2-18)
- blood level of CNP relative to native CNP at similar weight/Kg dose [4]: 10 fold

Molecule: CC[C@H](C)[C@@H]1NC(=O)[C@H](CCCNC(=N)N)NC(=O)[C@H](CC(=O)O)NC(=O)[C@H](CC(C)C)NC(=O)[C@H](CCCCN)NC(=O)[C@H](CC(C)C)NC(=O)CNC(=O)[C@H](Cc2ccccc2)NC(=O)[C@@H](NC(=O)CNC(=O)COCCOCCNC(=O)COCCOCCNC(=O)CC[C@H](NC(=O)CCCCCCCCCCCCCCCCC(=O)O)C(=O)O)CSSC[C@@H](C(=O)O)NC(=O)CNC(=O)[C@H](CC(C)C)NC(=O)CNC(=O)[C@H](CO)NC(=O)[C@H](CCCC(N)=O)NC(=O)[C@H](CO)NC(=O)CNC1=O [dCNP-s2] ({C18 diacid-γGlu-AEEA-AEEA}-GCFGLKLDRIGS[Aad](NH2)SGLGC-OH; disulfide 2-18)
- blood level of CNP relative to native CNP at similar weight/Kg dose [4]: 10 fold

Molecule: CCCCCCCCCCCCCCCCCC(=O)N[C@@H](CCCCN)C(=O)N[C@@H](CCCCN)C(=O)N[C@@H](CCCCN)C(=O)N[C@@H](CCCCN)C(=O)NCC(=O)NCC(=O)NCC(=O)NCC(=O)N[C@@H](CC(C)C)C(=O)N[C@@H](CO)C(=O)N[C@@H](CCCCN)C(=O)NCC(=O)N[C@H]1CSSC[C@@H](C(=O)O)NC(=O)CNC(=O)[C@H](CC(C)C)NC(=O)CNC(=O)[C@H](CO)NC(=O)[C@H](CCSC)NC(=O)[C@H](CO)NC(=O)CNC(=O)[C@H]([C@@H](C)CC)NC(=O)[C@H](CCCNC(=N)N)NC(=O)[C@H](CC(=O)O)NC(=O)[C@H](CC(C)C)NC(=O)[C@H](CCCCN)NC(=O)[C@H](CC(C)C)NC(=O)CNC(=O)[C@H](Cc2ccccc2)NC1=O [dCNP]
- plasma CNP ([3]; mouse, in vivo, sc, 2 mg/kg): sustained plasma presence

Molecule: B-type natriuretic peptide [BNP]
- Percent animal survival at various time after LPS administration (LPS-induced sepsis; hours 1 (last observation)): 10%
- Percent animal survival at various time after LPS administration (LPS-induced sepsis; hours 3 [sic]): 100%
- Percent animal survival at various time after LPS administration (LPS-induced sepsis; hours 7 [sic]): 60%
- Percent animal survival at various time after LPS administration (LPS-induced sepsis; hours 9 [sic]): 20%
- Percent animal survival at various time after LPS administration (LPS-induced sepsis; hours '0'): 100%
- Percent animal survival at various time after LPS administration (LPS-induced sepsis; [6]): 10%
- Percent animal survival at various time after LPS administration (LPS-induced sepsis; hours '2'): 100%
- Percent animal survival at various time after LPS administration (LPS-induced sepsis; hours '8'): 20%
- Percent animal survival at various time after LPS administration (LPS-induced sepsis; hours printed '5' (r13)): 100%

Molecule: PGQEHPNARKYKGANKKGLS KGCFGLKLDR IGSMSGLGC (PGQEHPNARKYKGANKKGLSKGCFGLKLDRIGSMSGLGC) [BMN-111]
- arterial blood pressure (BP) [5]: drops
- heart rate (HR) [5]: increases
